Test results published in patent US20210041447A1, “AZACARBOLINE COMPOUNDS FOR THE DETECTION OF TAU AGGREGATES” (AC IMMUNE SA, priority 2018, published 2021).
pIC50: −log10 of the molar value. Read-outs that look alike come from different tables or passages of the source.

Columns and labels:
MAO B = biological target: T1, MAO B (Homo sapiens, UniProt P27338); experiment: Binding affinity to MAO B in HC brain homogenate, [18F]fluoro deprenyl competition; set-up: Low affinity to MAO B: key: −: poor; ∘: moderate; +: good; ++: very good; +++: excellent
T1 construct: from tissue; host or cells: human brain homogenate without AD pathology
T1 sequence (P27338 1-520): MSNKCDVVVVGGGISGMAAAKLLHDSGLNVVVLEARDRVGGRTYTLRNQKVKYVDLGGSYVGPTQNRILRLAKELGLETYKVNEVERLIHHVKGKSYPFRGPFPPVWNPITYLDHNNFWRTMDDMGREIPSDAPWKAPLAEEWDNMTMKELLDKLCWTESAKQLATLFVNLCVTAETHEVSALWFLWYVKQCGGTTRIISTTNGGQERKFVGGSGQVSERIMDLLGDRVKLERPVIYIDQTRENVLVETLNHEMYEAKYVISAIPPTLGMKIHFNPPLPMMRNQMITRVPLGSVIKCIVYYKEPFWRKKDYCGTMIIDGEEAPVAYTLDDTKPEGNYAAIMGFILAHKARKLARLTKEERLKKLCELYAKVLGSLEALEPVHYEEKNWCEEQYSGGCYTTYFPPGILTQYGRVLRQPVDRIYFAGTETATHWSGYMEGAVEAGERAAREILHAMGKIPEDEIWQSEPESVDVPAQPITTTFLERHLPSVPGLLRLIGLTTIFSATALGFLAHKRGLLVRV
Procedure: (§1) 20 μg of human brain homogenate (without AD pathology) was incubated with a dilution series of each test compound (1000 to 0.06 nM) in the presence of 800 Bq of ^18F-labeled MAO-B binder ([^18F]fluoro deprenyl). The samples were shaken at 110 rpm for 45 min at 37° C. Samples were then filtered through GF/B 96-well filter plates and washed twice with 300 μL assay buffer (PBS containing 0.1% BSA and 2% DMSO). Thereafter, filter plates were sealed and a Fuji Film Imaging Plate (BAS-SR2025) was placed on top. The imaging plate was analyzed after overnight exposition using a Fuji Film BAS-5000. Non-specific signal was determined with samples containing ^18F-labeled fluoro deprenyl in the presence of assay buffer without brain substrate and competitor. Specific binding was calculated by subtracting the non-specific signal from the measured samples signal. The unblocked ^18F-labeled fluoro deprenyl signal was defined as total binding. IC50 values were calculated by Prism V6 (GraphPad) setting total binding to 100%.

Tau = Tau (Homo sapiens, UniProt P10636); experiment: Tau binding in AD brain homogenate, competition with 18F-labeled Tau binder; set-up: High affinity to Tau: key: −: poor; ∘: moderate; +: good; ++: very good; +++: excellent; conditions: for High affinity to Tau: AD brain homogenate, non-radioactive fluorine-19 derivatives; for pIC50: human AD brain homogenate, fluorine-19 derivatives
Chain of Tau (P10636 623-708 limits assumed): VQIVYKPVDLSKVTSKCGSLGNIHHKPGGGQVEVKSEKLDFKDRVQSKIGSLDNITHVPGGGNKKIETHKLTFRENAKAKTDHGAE
Procedure: (§2) 20 μg of human Alzheimer disease brain homogenate was incubated with a dilution series of each test compound (1000 to 0.06 nM) in the presence of 800 Bq of ^18F-labeled Tau binder. The samples were shaken at 110 rpm for 45 min at 37° C. Samples were then filtered through GF/B 96 well filter plates and washed twice with 300 μL assay buffer (PBS containing 0.1% BSA and 2% DMSO). Thereafter, filter plates were sealed and a Fuji Film Imaging Plate (BAS-SR2025) was placed on top. The imaging plate was analyzed after overnight exposition using a Fuji Film BAS-5000. Non-specific signal was determined with samples containing ^18F-labeled Tau-reference binder in the presence of assay buffer without brain substrate and competitor. Specific binding was calculated by subtracting the non-specific signal from the measured samples signal. The unblocked ^18F-labeled Tau-binder signal was defined as total binding. IC50 values were calculated by Prism V6 (GraphPad) setting total binding to 100%.

MAO A [1] = biological target: T2, MAO A (Mus musculus, UniProt Q64133); experiment: Binding affinity to MAO A in mouse brain homogenate, [18F]fluoroethyl harmine competition; conditions: for pIC50: 18F-FEH competition; for Low affinity to MAO A (mouse homogenate): key: −: poor; ∘: moderate; +: good; ++: very good; +++: excellent
T2 construct: from tissue; host or cells: mouse brain homogenate
T2 sequence (Q64133 1-526): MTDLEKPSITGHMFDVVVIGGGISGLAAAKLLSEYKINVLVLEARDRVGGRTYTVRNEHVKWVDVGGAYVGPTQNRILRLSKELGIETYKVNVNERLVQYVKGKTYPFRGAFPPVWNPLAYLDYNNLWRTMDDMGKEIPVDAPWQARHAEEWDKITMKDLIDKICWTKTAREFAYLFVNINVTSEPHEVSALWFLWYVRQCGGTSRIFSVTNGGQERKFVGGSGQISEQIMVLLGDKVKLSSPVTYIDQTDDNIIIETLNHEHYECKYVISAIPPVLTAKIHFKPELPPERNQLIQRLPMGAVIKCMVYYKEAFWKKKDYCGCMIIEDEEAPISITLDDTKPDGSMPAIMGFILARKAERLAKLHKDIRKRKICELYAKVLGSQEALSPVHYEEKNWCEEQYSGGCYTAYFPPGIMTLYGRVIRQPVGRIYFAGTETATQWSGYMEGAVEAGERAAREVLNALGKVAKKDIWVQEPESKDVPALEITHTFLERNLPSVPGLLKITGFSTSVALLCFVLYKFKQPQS
Procedure: as §1, with “of” for “of human”, “18F-labeled MAO-A” for “^18F-labeled MAO-B”, “([^18F]fluoroethyl harmine, FEH).” for “([^18F]fluoro deprenyl).”, “FEH” for “fluoro deprenyl”

MAO A [2] = biological target: T3, MAO A (Homo sapiens, UniProt P21397); experiment: Binding affinity to MAO A in human HC brain homogenate, [18F]fluoroethyl harmine competition; conditions: human healthy control brain homogenate; for pIC50: 18F-FEH competition; for Low affinity to MAO A (HC homogenate): key: −: poor; ∘: moderate; +: good; ++: very good; +++: excellent
T3 construct: from tissue; host or cells: human healthy control brain homogenate
T3 sequence (P21397 1-527): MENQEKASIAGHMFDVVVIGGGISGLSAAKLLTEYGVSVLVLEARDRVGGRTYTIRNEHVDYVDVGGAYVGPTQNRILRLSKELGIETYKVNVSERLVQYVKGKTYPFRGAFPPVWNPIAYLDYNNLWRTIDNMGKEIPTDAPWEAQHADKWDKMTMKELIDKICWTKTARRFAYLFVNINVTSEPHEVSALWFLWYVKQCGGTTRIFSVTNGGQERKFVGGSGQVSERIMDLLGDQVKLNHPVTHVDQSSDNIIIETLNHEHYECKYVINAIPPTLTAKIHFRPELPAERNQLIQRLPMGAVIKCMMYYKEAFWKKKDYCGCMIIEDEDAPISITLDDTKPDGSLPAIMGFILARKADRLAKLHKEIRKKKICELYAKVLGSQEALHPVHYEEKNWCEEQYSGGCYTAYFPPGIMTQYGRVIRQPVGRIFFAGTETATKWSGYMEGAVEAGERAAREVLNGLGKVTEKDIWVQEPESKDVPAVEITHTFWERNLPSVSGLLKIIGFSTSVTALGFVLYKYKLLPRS
Procedure: as §1, with “of” for “of human”, “18F-labeled MAO-A” for “^18F-labeled MAO-B”, “([^18F]fluoroethyl harmine, FEH).” for “([^18F]fluoro deprenyl).”, “FEH” for “fluoro deprenyl”

amyloid-beta = amyloid-beta (Homo sapiens, UniProt P05067); experiment: Binding affinity to amyloid-beta in AD brain homogenate, competition with 18F-labeled beta-amyloid binder; set-up: Low affinity to amyloid-beta: key: −: poor; ∘: moderate; +: good; ++: very good; +++: excellent
Chain of amyloid-beta (P05067 672-711 limits assumed): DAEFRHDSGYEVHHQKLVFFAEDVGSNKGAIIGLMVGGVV
Procedure: as §2, with “beta-amyloid” for “Tau”, “96-well” for “96 well”, “beta-amyloid” for “Tau-reference”, “beta-amyloid binder” for “Tau-binder”

[3] = human HC brain homogenate; 18F-fluoro deprenyl competition; read-out: IC50 in HC brain homogenate (MAO B)
[4] = human AD brain homogenate; read-out: IC50 in AD brain homogenate (amyloid-beta)

Row | SMILES | Low affinity to MAO B (MAO B; HC brain homogenate) | pIC50 (MAO B; [3]) | High affinity to Tau (Tau) | pIC50 (Tau) | Low affinity to MAO A (mouse homogenate) (MAO A [1]) | pIC50 (MAO A [1]) | Low affinity to MAO A (HC homogenate) (MAO A [2]) | pIC50 (MAO A [2]) | Low affinity to amyloid-beta (amyloid-beta; AD brain homogenate) | pIC50 (amyloid-beta; [4]) | pIC50 (MAO B; read-out: IC50 in HC brain homogenate (MAO B); human HC brain homogenate; 18F-fluoro deprenyl competition) | pIC50 (amyloid-beta; read-out: IC50 in AD brain homogenate (amyloid-beta); human AD brain homogenate)
1 | Fc1nccc(-c2ccc3c(n2)[nH]c2ccncc23)c1F [Example F-3] | +++ | 6.19 | +++ | 8.15 | +++ | 6.08 | +++ | < 6.00 | +++ | < 6.00 |  | 
2 | Fc1nccc(-c2ccc3c(n2)[nH]c2ccncc23)c1Cl [Example F-4] | +++ | < 6.00 | ++ | 7.59 | +++ | < 6.00 | +++ | < 6.00 | +++ | < 6.00 |  | 
3 | Fc1cc(-c2ccc3c(n2)[nH]c2ccncc23)cc(F)n1 [Example F-5] | +++ | < 6.00 | ++ | 7.54 | +++ | < 6.00 | +++ | < 6.00 | +++ | < 6.00 |  | 
4 | Fc1cc(-c2ccc3c(n2)[nH]c2ccncc23)c(F)cn1 [Example F-6] | +++ | < 6.00 | ++ | 7.77 | +++ | < 6.00 | +++ | < 6.00 | +++ | < 6.00 |  | 
5 | Fc1ccc(-c2ccc3c(n2)[nH]c2ccncc23)c(F)n1 [Example F-7] | ++ | 6.41 | ++ | 8.00 | +++ | 6.15 | +++ | 6.13 | +++ | < 6.00 |  | 
6 | Fc1cnc(F)c(-c2ccc3c(n2)[nH]c2ccncc23)c1 [Example F-8] | +++ | < 6.00 | ++ | 8.05 | +++ | < 6.00 | +++ | < 6.00 | +++ | < 6.00 |  | 
7 | N#Cc1ccc(-c2ccc3c(n2)[nH]c2ccncc23)cc1F [Example F-9] | +++ | < 6.00 | ++ | 7.89 | ++ | 6.74 | ++ | 6.48 | +++ | < 6.00 |  | 
8 | N#Cc1cc(-c2ccc3c(n2)[nH]c2ccncc23)ccc1F [Example F-9a] |  |  | +++ | 8.06 | ++ | 6.82 |  |  |  |  |  | 
9 | Nc1cc(-c2ccc3c(n2)[nH]c2ccncc23)ccc1F [Example F-10] | +++ |  | +++ |  | + | 7.60 | + | 7.62 | +++ |  | < 6.00 | 6.17
